Measurements published in PubChem BioAssay (NCI).
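Cultured in 96-well plates, cells were exposed to test compound for 48 hours across five concentrations. Definition used: TGI = concentration required for complete inhibition of growth.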

Experiments:
Assay in all cases: NCI-60 cell line screen, 48 h
[1] = tested on: OVCAR-8 ovarian
[2] = tested on: U251 CNS
[3] = tested on: HOP-92 NSCLC
[4] = tested on: HL-60(TB) leukemia
[5] = tested on: NCI-H23 lung
[6] = tested on: K-562 leukemia
[7] = tested on: SF-268 CNS
[8] = tested on: LXFL 529 NSCLC
[9] = tested on: DMS 114 small cell lung
[10] = tested on: SNB-75 CNS
[11] = tested on: COLO 205 colon
[12] = tested on: SK-MEL-28 melanoma
[13] = tested on: IGROV1 ovarian
[14] = tested on: KM12 colon
[15] = tested on: MALME-3M melanoma
[16] = tested on: KM20L2 colon
[17] = tested on: RXF 393 renal
[18] = tested on: SF-539 CNS
[19] = tested on: UACC-257 melanoma
[20] = tested on: OVCAR-4 ovarian
[21] = tested on: SK-MEL-5 melanoma
[22] = tested on: XF 498 CNS
[23] = tested on: HCC-2998 colon
[24] = tested on: OVCAR-3 ovarian
[25] = tested on: SN12C renal
[26] = tested on: ACHN renal
[27] = tested on: SK-OV-3 ovarian
[28] = tested on: CCRF-CEM leukemia
[29] = tested on: SNB-78 CNS
[30] = tested on: LOX IMVI melanoma
[31] = tested on: HCT-116 colon
[32] = tested on: NCI-H226 lung
[33] = tested on: SK-MEL-2 melanoma
[34] = tested on: UACC-62 melanoma
[35] = tested on: 786-0 renal
[36] = tested on: SNB-19 CNS
[37] = tested on: SW-620 colon
[38] = tested on: SF-295 CNS
[39] = tested on: A549 NSCLC
[40] = tested on: HT29 colon
[41] = tested on: HCT-15 colon
[42] = tested on: OVCAR-5 ovarian
[43] = tested on: MOLT-4 leukemia
[44] = tested on: HOP-62 NSCLC
[45] = tested on: TK-10 renal
[46] = tested on: M14 melanoma
[47] = tested on: A498 renal
[48] = tested on: NCI-H460 lung
[49] = tested on: HOP-18 NSCLC
[50] = tested on: UO-31 renal
[51] = tested on: DLD-1 colon
[52] = tested on: CAKI-1 renal
[53] = tested on: M19-MEL melanoma
[54] = tested on: NCI-H522 lung
[55] = tested on: SR leukemia
[56] = tested on: EKVX NSCLC
[57] = tested on: RPMI-8226 leukemia
[58] = tested on: DMS 273 small cell lung

Cc1nc(C(N)=S)sc1C(=O)CC(=O)C(=O)Nc1c(C(C)C)cccc1C(C)C
TGI [1]: > 100 µM | TGI [2]: > 100 µM | TGI [3]: 92.9 µM | TGI [4]: > 100 µM | TGI [5]: 88.9 µM | TGI [6]: > 100 µM | TGI [7]: > 100 µM | TGI [8]: > 100 µM | TGI [9]: 64.6 µM | TGI [10]: 71.7 µM | TGI [11]: > 100 µM | TGI [12]: > 100 µM | TGI [13]: > 100 µM | TGI [14]: > 100 µM | TGI [15]: > 100 µM | TGI [16]: > 100 µM | TGI [17]: > 100 µM | TGI [18]: 86.3 µM | TGI [19]: > 100 µM | TGI [20]: > 100 µM | TGI [21]: > 100 µM | TGI [22]: 48.8 µM | TGI [23]: > 100 µM | TGI [24]: 42 µM | TGI [25]: > 100 µM | TGI [26]: > 100 µM | TGI [27]: > 100 µM | TGI [28]: > 100 µM | TGI [29]: > 100 µM | TGI [30]: > 100 µM | TGI [31]: > 100 µM | TGI [32]: > 100 µM | TGI [33]: > 100 µM | TGI [34]: > 100 µM | TGI [35]: > 100 µM | TGI [36]: > 100 µM | TGI [37]: > 100 µM | TGI [38]: 85.4 µM | TGI [39]: > 100 µM | TGI [40]: > 100 µM | TGI [41]: > 100 µM | TGI [42]: > 100 µM | TGI [43]: > 100 µM | TGI [44]: > 100 µM | TGI [45]: > 100 µM | TGI [46]: > 100 µM | TGI [47]: > 100 µM | TGI [48]: > 100 µM | TGI [49]: > 100 µM | TGI [50]: > 100 µM | TGI [51]: > 100 µM | TGI [52]: > 100 µM | TGI [53]: > 100 µM | TGI [54]: 46.9 µM | TGI [55]: > 100 µM | TGI [56]: > 100 µM | TGI [57]: > 100 µM

COC(=O)C1CCC(=O)C(Sc2ccccc2)C1 (stereo not given)
TGI [1]: > 100 µM | TGI [2]: > 100 µM | TGI [3]: > 100 µM | TGI [4]: > 100 µM | TGI [5]: > 100 µM | TGI [6]: > 100 µM | TGI [7]: > 100 µM | TGI [8]: > 100 µM | TGI [9]: > 100 µM | TGI [10]: 96.4 µM | TGI [11]: > 100 µM | TGI [12]: > 100 µM | TGI [13]: > 100 µM | TGI [14]: > 100 µM | TGI [16]: > 100 µM | TGI [17]: > 100 µM | TGI [18]: > 100 µM | TGI [19]: > 100 µM | TGI [20]: > 100 µM | TGI [21]: > 100 µM | TGI [22]: > 100 µM | TGI [24]: > 100 µM | TGI [25]: > 100 µM | TGI [58]: > 100 µM | TGI [26]: > 100 µM | TGI [27]: > 100 µM | TGI [28]: 80 µM | TGI [29]: > 100 µM | TGI [30]: > 100 µM | TGI [31]: > 100 µM | TGI [32]: > 100 µM | TGI [34]: > 100 µM | TGI [36]: > 100 µM | TGI [37]: > 100 µM | TGI [38]: > 100 µM | TGI [39]: > 100 µM | TGI [40]: > 100 µM | TGI [41]: > 100 µM | TGI [42]: > 100 µM | TGI [43]: > 100 µM | TGI [45]: > 100 µM | TGI [46]: > 100 µM | TGI [47]: > 100 µM | TGI [48]: > 100 µM | TGI [49]: > 100 µM | TGI [50]: 99 µM | TGI [51]: > 100 µM | TGI [52]: > 100 µM | TGI [53]: > 100 µM | TGI [54]: > 100 µM | TGI [56]: > 100 µM | TGI [57]: > 100 µM

CN(C(=O)c1cccs1)C(=S)N1CCN(c2ccccn2)CC1
TGI [1]: > 100 µM | TGI [2]: > 100 µM | TGI [3]: > 100 µM | TGI [4]: > 100 µM | TGI [5]: > 100 µM | TGI [6]: > 100 µM | TGI [7]: > 100 µM | TGI [8]: > 100 µM | TGI [9]: > 100 µM | TGI [10]: > 100 µM | TGI [11]: > 100 µM | TGI [12]: > 100 µM | TGI [13]: > 100 µM | TGI [14]: > 100 µM | TGI [15]: > 100 µM | TGI [16]: > 100 µM | TGI [17]: > 100 µM | TGI [18]: > 100 µM | TGI [19]: > 100 µM | TGI [20]: > 100 µM | TGI [21]: > 100 µM | TGI [22]: > 100 µM | TGI [24]: > 100 µM | TGI [25]: > 100 µM | TGI [58]: > 100 µM | TGI [26]: > 100 µM | TGI [27]: > 100 µM | TGI [28]: > 100 µM | TGI [29]: > 100 µM | TGI [30]: > 100 µM | TGI [31]: > 100 µM | TGI [32]: > 100 µM | TGI [33]: > 100 µM | TGI [34]: > 100 µM | TGI [35]: > 100 µM | TGI [36]: > 100 µM | TGI [37]: > 100 µM | TGI [38]: > 100 µM | TGI [39]: > 100 µM | TGI [40]: > 100 µM | TGI [41]: > 100 µM | TGI [42]: > 100 µM | TGI [43]: > 100 µM | TGI [44]: > 100 µM | TGI [45]: > 100 µM | TGI [46]: > 100 µM | TGI [48]: > 100 µM | TGI [49]: > 100 µM | TGI [50]: > 100 µM | TGI [51]: > 100 µM | TGI [52]: > 100 µM | TGI [53]: > 100 µM | TGI [54]: > 100 µM | TGI [57]: > 100 µM

Cc1cc([N+](=O)[O-])c(C)c2c1[nH]c1ccc(O)cc12
TGI [1]: > 100 µM | TGI [4]: 63 µM | TGI [5]: > 100 µM | TGI [6]: > 100 µM | TGI [7]: > 100 µM | TGI [9]: > 100 µM | TGI [10]: > 100 µM | TGI [11]: > 100 µM | TGI [12]: > 100 µM | TGI [14]: > 100 µM | TGI [15]: > 100 µM | TGI [18]: > 100 µM | TGI [19]: > 100 µM | TGI [20]: > 100 µM | TGI [21]: > 100 µM | TGI [22]: > 100 µM | TGI [23]: > 100 µM | TGI [24]: > 100 µM | TGI [25]: > 100 µM | TGI [58]: > 100 µM | TGI [26]: > 100 µM | TGI [28]: > 100 µM | TGI [29]: > 100 µM | TGI [30]: > 100 µM | TGI [31]: > 100 µM | TGI [32]: > 100 µM | TGI [33]: > 100 µM | TGI [35]: > 100 µM | TGI [36]: > 100 µM | TGI [37]: > 100 µM | TGI [38]: > 100 µM | TGI [39]: > 100 µM | TGI [40]: > 100 µM | TGI [41]: > 100 µM | TGI [42]: > 100 µM | TGI [43]: > 100 µM | TGI [44]: > 100 µM | TGI [45]: > 100 µM | TGI [46]: > 100 µM | TGI [48]: > 100 µM | TGI [49]: > 100 µM | TGI [50]: > 100 µM | TGI [51]: 43.7 µM | TGI [52]: > 100 µM | TGI [53]: > 100 µM | TGI [55]: > 100 µM | TGI [56]: > 100 µM | TGI [57]: 79 µM

Cn1cnc([N+](=O)[O-])c1Sc1nc2ncccc2[nH]1
TGI [1]: > 100 µM | TGI [2]: > 100 µM | TGI [3]: > 100 µM | TGI [4]: 62.6 µM | TGI [5]: > 100 µM | TGI [6]: > 100 µM | TGI [7]: > 100 µM | TGI [8]: > 100 µM | TGI [9]: 74.4 µM | TGI [10]: > 100 µM | TGI [11]: 56.5 µM | TGI [12]: > 100 µM | TGI [13]: > 100 µM | TGI [14]: > 100 µM | TGI [15]: > 100 µM | TGI [16]: > 100 µM | TGI [17]: > 100 µM | TGI [18]: > 100 µM | TGI [19]: > 100 µM | TGI [20]: > 100 µM | TGI [21]: > 100 µM | TGI [22]: > 100 µM | TGI [23]: > 100 µM | TGI [24]: > 100 µM | TGI [25]: > 100 µM | TGI [26]: > 100 µM | TGI [27]: > 100 µM | TGI [28]: 64.2 µM | TGI [29]: > 100 µM | TGI [30]: > 100 µM | TGI [31]: > 100 µM | TGI [32]: > 100 µM | TGI [34]: > 100 µM | TGI [35]: > 100 µM | TGI [36]: > 100 µM | TGI [37]: > 100 µM | TGI [38]: > 100 µM | TGI [39]: > 100 µM | TGI [40]: > 100 µM | TGI [41]: > 100 µM | TGI [42]: > 100 µM | TGI [43]: > 100 µM | TGI [44]: > 100 µM | TGI [45]: > 100 µM | TGI [46]: > 100 µM | TGI [47]: > 100 µM | TGI [48]: > 100 µM | TGI [49]: > 100 µM | TGI [50]: > 100 µM | TGI [51]: > 100 µM | TGI [52]: 85.6 µM | TGI [55]: > 100 µM | TGI [56]: > 100 µM | TGI [57]: > 100 µM
